In patent US20190167771A1, “CONTROL ANGIOGENESIS BY REGULATING PHOSPHORYLATION OF SERYL-tRNA SYNTHETASE (SerRS)” (The Scripps Research Institute, priority 2016, published 2019):

Experiments:
SerRS phosphorylation = experiment: Hypoxia-induced phosphorylation of endogenous SerRS in HEK293 cells with ATM/ATR inhibitors (IP/IB); type: cell-based, human; conditions: HEK293 pretreated with inhibitor for one hour, hypoxia 12 hours
Description: In FIG. 7C, HEK293 cells were pretreated with specific ATM inhibitor KU-55933 and ATR inhibitor VE-821 for one hour and then cultured under hypoxia condition for 12 hours. Cell lysates were subjected to IP with anti-SerRS antibody followed by immunoblot (IB) with anti-P-SQ antibody for detecting phosphorylated SerRS (P-SerRS). Phosphorylation of known ATM/ATR substrates (Chk1 and Chk2) was also immunoblotted.
Cells were resuspended with lysis buffer (20 mM Tris-HCl (pH 7.5), 150 mM NaCl, 1 mM of EDTA, 1 mM EGTA, 1% Triton X-100, 2.5 mM sodium pyrophosphate, 1 mM beta-glycerophosphate, 1 mM Na3VO4, and protease inhibitor cocktail) on ice. Supernatants were incubated with indicated antibodies and protein-G-conjugated agarose beads (ThermoFisher Scientific) for at least 2 h. The beads were washed five times with wash buffer (same as the lysis buffer, except that Triton X-100 was reduced from 1% to 0.1%) and then subjected to SDS-PAGE and immunoblotting analysis with indicated antibodies.

VEGFA [1] = experiment: VEGFA mRNA induction by 12-hour hypoxia in HEK293 cells (qRT-PCR); type: cell-based, human; conditions: inhibitor 5 μM pretreatment, hypoxia 12 hours
Description: In FIG. 3B, HEK293 cells were transiently transfected with SerRS^WT or SerRS^S101A/S241A constructs or empty control vector. 24 hours post-transfection, VEGFA mRNA induction by 12-hour-hypoxia treatment was monitored by qRT-PCR (means±SEM from four independent experiments; *P<0.05, **P<0.01, ***P<0.005). In FIG. 3C, HEK293 cells were transiently transfected with indicated constructs. 36 hours post-transfection, VEGFA mRNA induction by 12-hour-hypoxia treatment was monitored by qRT-PCR (means±SEM from four independent experiments; *P<0.0, **P<0.001, ***P<0.0001). The protein levels of SerRS, HIF-1α, and β-actin were examined by western blot (bottom).
Transient transfections were performed using Lipofectamine 2000 (ThermoFisher Scientific).
One gram of the total RNA from each sample was reversely transcribed to cDNA by M-MLV reverse transcriptase (Promega, Madison, Wis., USA). All real-time PCR reactions were performed using the StepOnePlus Real-Time PCR system (ThermoFisher Scientific) with SYBR Select Master Mix ThermoFisher Scientific). […] The PCR reaction program started at 95° C. for 10 min, followed by 45 cycles of 95° C. for 20 seconds and 60° C. for 1 min. Each experiment was carried out in triplicate. The VEGFA gene expression was normalized to that of β-ACTIN. Statistical analyses were performed with the software SigmaPlot (version 10.0). Student's t-test was used to analyze the changes between different groups.

Vegfa [2] = experiment: Vegfa mRNA by qRT-PCR in zebrafish embryos with SerRS knockdown and mRNA co-injection; type: in vivo; conditions: morpholino injected into 1-cell stage embryos, 3 dpf
Description: (§1) In FIG. 2A, wild type SerRS (SerRS^WT), its mutants with double substitutions of serine 101 and 241 with alanine or aspartic acid residues (SerRS^S101A/S241A and SerRS^S101D/S241D), or empty vector were transfected into HEK293 cells. The expression levels of SerRS proteins was measured by immunoblot (bottom) and VEGFA expression was determined by qRT-PCR (means±SEM from three independent experiments; ***P<0.0001). In FIGS. 2B-D, the roles of SerRS^S101A/S241A and SerRS^S101D/S241D in regulating vascular development in vivo in zebrafish were examined by co-injection of SerRS^S101A/S241A and SerRS^S101D/S241D mRNAs into one-cell-stage embryos whose endogenous SerRS was knocked down by injection of antisense morpholino (SerRS-MO) that led to abnormal high expression of Vegfa and hypervascularization (shown by short bold arrows in FIG. 2C). At 3 day post fertilization (dpf), embryos were harvested and Vegfa expression levels were measured by qRT-PCR (means±SEM, n=125-211; *P<0.01, **P<0.001) (B). The development of intersegmental vessel (ISV) at 3 dpf was examined (C) and the statistics of ISV abnormal branching rescued by SerRS^WT or mutant SerRS mRNA injections was analyzed (D; χ^2-test,* P>0.05 vs SerRS^WT, **P>0.1 vs SerRS-MO, ***P<1×10^−28 vs control-MO). In FIG. 2E, the binding affinities of SerRS^WT or SerRS^S101D/S241D with ^32P labeled DNA fragments corresponding to SerRS binding site on human VEGFA promoter were examined by EMSA. In FIG. 2F, the binding of SerRS^WT, SerRS^S101A/S241A, or SerRS^S101D/S241D on VEGFA promoter in HEK293 cells was examined by chromatin immunoprecipitation (ChIP) and qPCR (means±SEM from two independent experiments; ***P<0.0001). In FIG. 2G, the binding of endogenous SerRS on VEGFA promoter during hypoxia course was monitored by ChIP (means±SEM from three independent experiments; *P<0.05, **P<0.005 vs normal).
Total RNA was isolated from cells and zebrafish embryos by TRIzol Reagent (ThermoFisher Scientific). […] of the total RNA from each sample was reversely transcribed to cDNA by M-MLV reverse transcriptase (Promega, Madison, Wis., USA). All real-time PCR reactions were performed using the StepOnePlus Real-Time PCR system (ThermoFisher Scientific) with SYBR Select Master Mix ThermoFisher Scientific). […]

zebrafish embryos = experiment: Intersegmental vessel (ISV) branching in zebrafish embryos; type: in vivo; conditions: SerRS-MO alone, 3 dpf
Description: as §1
Transgenic Tg (Fli1a: EGFP) fish were maintained as we described before (Ref). The fish embryos were kept at 28.5° C. before and after microinjection. The antisense morpholino (MOs) targeting SerRS was injected into the yolk of 1-cell stage embryos at the dosage of 4˜5 ng per embryo. The sequence of SerRS-MO is (Ref). The SerRS-MO (5′ AGGAGAATGTGAACAAACCTGACAC 3′ (SEQ ID NO: 34)) and standard control MO (5′ CCTCTTACCTCAGTTACAATTTATA 3′ (SEQ ID NO: 35)) were purchased from Gene Tools, LLC (Philomath, Oreg. USA). After injection, embryos were incubated in E3 embryo medium supplemented with 0.003% 1-phenyl-2-thiourea (PTU) at 28.5° C. to prevent pigment formation. […] The rescue effects of different SerRS mutants on ISV development were analyzed with χ^2 test. […]

ATM/ATR kinases = experiment: In vitro phosphorylation of recombinant SerRS by DNA-activated HEK293 nuclear extract (p-SQ immunoblot, 32P-labelling); type: biochemical, human; conditions: recombinant his6-tagged protein, p-SQ antibody and 32P-labelling
Description: FIGS. 1A-G show SerRS is important for hypoxia induced VEGFA expression and is phosphorylated by ATM and ATR kinases under hypoxia at serine 101 and serine 241 residues. In FIG. 1A, HEK293 cells were transfected with shRNAs targeting SerRS (sh-SerRS) or GlyRS (sh-GlyRS), or nonspecific control shRNA (sh-Control). 48 hours post-transfection, cells were cultured under hypoxia or normoxia conditions for 12 hours. Immunoblot of cell lysates with anti-SerRS, anti-GlyRS and anti-β-actin antibodies (left). VEGFA expression levels were measured by qRT-PCR (right) and relative induction of VEGFA transcription under hypoxia were plotted (right, inset) (means±SEM. from four independent experiments; *P<0.01, **P<0.0001). […] The conserved ATM/ATR substrate motif residues are underlined. In FIG. 1C, recombinant his6-tagged human SerRS or GlyRS were incubated with γ-^32P-ATP and HEK293 cell nuclear extracts which are treated with or without double-stranded DNA oligoes mimicking DNA damage stimuli to activate ATM/ATR/DNA-PK kinases. Recombinant proteins were then purified by Ni-NTA beads and subjected to SDS-PAGE and autoradiography. In FIG. 1D, recombinant his6-tagged two human aminoacyl tRNA synthetases (AARS): TyrRS and GlyRS, wild type SerRS, or SerRS mutants with single or double substitutions of serine 101 and serine 241 with alanine (S101A, S241A, and S101A/S241A) were treated as described in FIG. 1C and phosphorylated recombinant proteins were immunoblotted with antibodies as indicated after purification by Ni-NTA beads. In FIG. 1E, HEK293 cells were cultured under hypoxia for 3, 6, and 12 hours. Phosphorylated SerRS was immunoblotted with specific anti-p-SQ antibody after SerRS proteins were immunoprecipitated (IP). Cell lysates were immunoblotted with indicated antibodies for known ATM and ATR substrates (Chk1 and P53). In FIG. 1F, Flag-tagged wild type and mutant SerRS constructs were transfected into HEK293 cells. 24 hours post-transfection, cells were treated with hypoxia stress for 12 hours and ectopically expressed SerRS was then purified by immunoprecipitation (IP) using anti-Flag antibody and immunoblot (IB) with anti-P-SQ antibody and anti-Flag antibody. In FIG. 1G, HEK293 cells were transfected with siRNA against ATM (si-ATM) or ATR (si-ATR) and treated with hypoxia stress for 12 hours. Phosphorylated SerRS were immunoblotted as described in FIG. 1E. […]
For protein purification, human SerRS and its mutant genes were subeloned into pET-20b(+) plasmid (Novagen, Darmstadt, Germany) and overexpressed in E. coli. […] The purities of the recombinant proteins were assessed by Coomassie blue staining following 4-12% Mini Gel (ThermoFisher Scientific) electrophoresis. Protein concentrations were determined using Bradford protein assay (BioRad, Hercules, Calif., USA). […]

Molecule: O=c1cc(-c2cccc3c2Sc2ccccc2S3)oc(N2CCOCC2)c1 [KU-55933, reference compound]
- SerRS phosphorylation under hypoxia (SerRS phosphorylation): blocked
- VEGFA induction under hypoxia (VEGFA [1]): less but still statistically significant

Molecule: CS(=O)(=O)c1ccc(-c2cnc(N)c(C(=O)Nc3ccccc3)n2)cc1 [VE-821, reference compound]
- SerRS phosphorylation under hypoxia (SerRS phosphorylation): blocked
- VEGFA induction under hypoxia (VEGFA [1]): dramatically inhibited VEGFA induction

Molecule: SerRS-MO: antisense morpholino targeting zebrafish SerRS, SEQ ID NO: 34 (antisense AGGAGAATGTGAACAAACCTGACAC; all phosphorodiamidate morpholino (PMO)) [reference compound]
- increase in the mRNA level of Vegfa (Vegfa [2]): 4 fold
- zebrafish embryos with abnormal hyper-ISV branching phenotype (zebrafish embryos): 69.7%

Molecule: SerRS^S101A: human SerRS mutant, serine 101 substituted with alanine, SEQ ID NO: 2
- level of phosphorylation in vitro (ATM/ATR kinases): decreased level of phosphorylation

Molecule: SerRS^S241A: human SerRS mutant, serine 241 substituted with alanine, SEQ ID NO: 3
- level of phosphorylation in vitro (ATM/ATR kinases): almost had no phosphorylation
